| melting point | SMILES |
| --- | --- |
| 83 to 84 °C (dec.) | CN(C)CC#C[C@H]1CC[C@H](N(C)c2ncc(Br)cn2)CC1 [Example 2, trans-(5-Bromo-pyrimidin-2-yl)-[4-(3-dimethylamino-prop-1-ynyl)-cyclohexyl]-methyl-amine] |
| 108.3 to 109.5 °C | CN(C)C[C@H]1CC[C@H](CCNc2ncc(Br)cn2)CC1 [Example 12, trans-(5-Bromo-pyrimidin-2-yl)-[2-(4-dimethylaminomethyl-cyclohexyl)-ethyl]-amine] |
| 71 to 72 °C | CN(C)CC#C[C@H]1CC[C@H](CN(C)c2ncc(Br)cn2)CC1 [Example 16, trans-(5-Bromo-pyrimidin-2-yl)-[4-(3-dimethylamino-prop-1-ynyl)-cyclohexylmethyl]-methyl-amine] |
| 49 to 50 °C | CCCc1cnc(N(C)C[C@H]2CC[C@H](C#CCN(C)C)CC2)nc1 [Example 23.1, trans-[4-(3-Dimethylamino-prop-1-ynyl)-cyclohexylmethyl]-methyl-(5-propyl-pyrimidin-2-yl)-amine] |

Reference: patent US7012077B2, “Substituted cyclohexane derivatives” (Hoffmann-La Roche Inc., priority 2001, dated 2006)
